From patent US9828374B2, “Substituted pyrazino[2,2-a]isoquinoline derivatives” (Hoffmann-La Roche Inc., priority 2014, dated 2017)

Columns and labels:
rat TAAR1 = rat TAAR1 (Rattus norvegicus (Rat), UniProt Q923Y9); experiment: Radioligand binding assay on rat TAAR1; details: for Ki: rat TAAR1, HEK-293 membranes, second value of the mouse/rat pair
Experimental: (§1) Construction of TAAR Expression Plasmids and Stably Transfected Cell Lines
(§2) For the construction of expression plasmids the coding sequences of human, rat and mouse TAAR 1 were amplified from genomic DNA essentially as described by Lindemann et al..
(§3) The Expand High Fidelity PCR System (Roche Diagnostics) was used with 1.5 mM Mg^2+ and purified PCR products were cloned into pCR2.1-TOPO cloning vector (Invitrogen) following the instructions of the manufacturer. PCR products were subcloned into the pIRESneo2 vector (BD Clontech, Palo Alto, Calif.), and expression vectors were sequence verified before introduction in cell lines.
(§4) HEK293 cells (ATCC # CRL-1573) were cultured essentially as described by Lindemann et al. (2005). For the generation of stably transfected cell lines HEK293 cells were transfected with the pIRESneo2 expression plasmids containing the TAAR coding sequences (described above) with Lipofectamine 2000 (Invitrogen) according to the instructions of the manufacturer, and 24 hrs post transfection the culture medium was supplemented with 1 mg/ml G418 (Sigma, Buchs, Switzerland). After a culture period of about 10 d clones were isolated, expanded and tested for responsiveness to trace amines (all compounds purchased from Sigma) with the cAMP Biotrak Enzyme immunoassay (EIA) System (Amersham) following the non-acetylation EIA procedure provided by the manufacturer.
Radioligand Binding Assay on Rat TAAR1
(§5) Membrane Preparation and Radioligand Binding.
(§6) HEK-293 cells stably expressing rat TAAR1 were maintained at 37° C. and 5% CO2 in DMEM high glucose medium, containing fetal calf serum (10%, heat inactivated for 30 min at 56° C.), penicillin/streptomycin (1%), and 375 μg/ml geneticin (Gibco). Cells were released from culture flasks using trypsin/EDTA, harvested, washed twice with ice-cold PBS (without Ca^2+ and Mg^2+), pelleted at 1,000 rpm for 5 min at 4° C., frozen and stored at −80° C. Frozen pellets were suspended in 20 ml HEPES-NaOH (20 mM, pH 7.4) containing 10 mM EDTA and homogenized with a Polytron (PT 6000, Kinematica) at 14,000 rpm for 20 s. The homogenate was centrifuged at 48,000×g for 30 min at 4° C. Subsequently, the supernatant was removed and discarded, and the pellet resuspended in 20 ml HEPES-NaOH (20 mM, pH 7.4) containing 0.1 mM EDTA using the Polytron (20 s at 14,000 rpm). This procedure was repeated and the final pellet resuspended in HEPES-NaOH containing 0.1 mM EDTA and homogenized using the Polytron. Typically, aliquots of 2 ml membrane portions were stored at −80° C. With each new membrane batch the dissociation constant (Kd) was determined via a saturation curve. […] Nonspecific binding was defined as the amount of [H]-(S)-4-[(ethyl-phenyl-amino)-methyl]-4,5-dihydro-oxazol-2-ylamine bound in the presence of 10 μM unlabeled ligand. All compounds were tested at a broad range of concentrations (10 μM to 10 μM) in duplicates. […] The 96 deep well plates were incubated for 1 hr at 4° C. Incubations were terminated by rapid filtration through Unifilter-96 plates (Packard Instrument Company) and glass filters GF/C (Perkin Elmer) presoaked for 1 hr in polyethylenimine (0.3%) and washed 3 times with 1 ml of cold binding buffer. After addition of 45 μl of Microscint 40 (PerkinElmer) the Unifilter-96 plate was sealed and after 1 hr the radioactivity counted using a TopCount Microplate Scintillation Counter (Packard Instrument Company).

mouse TAAR1 = mouse TAAR1 (Mus musculus (Mouse), UniProt Q923Y8); experiment: Radioligand binding assay on mouse TAAR1; details: for Ki: mouse TAAR1, HEK-293 membranes, first value of the mouse/rat pair
Chain of mouse TAAR1 (Q923Y8 whole entry): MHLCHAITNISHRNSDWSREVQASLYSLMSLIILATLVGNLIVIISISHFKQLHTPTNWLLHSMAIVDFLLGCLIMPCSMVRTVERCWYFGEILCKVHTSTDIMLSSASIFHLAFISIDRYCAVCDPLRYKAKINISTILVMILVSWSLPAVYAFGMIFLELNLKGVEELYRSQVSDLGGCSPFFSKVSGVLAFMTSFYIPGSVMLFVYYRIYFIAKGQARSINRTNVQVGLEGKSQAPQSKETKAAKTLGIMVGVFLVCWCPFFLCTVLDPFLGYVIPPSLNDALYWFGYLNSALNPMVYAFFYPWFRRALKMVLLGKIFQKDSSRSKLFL
Experimental: as §1, §2, §3, §4
Radioligand Binding Assay on Mouse TAAR1
as §5
as §6, with “expressing mouse” for “expressing rat”, “of ^3[H]-(S)-4-[(ethyl-phenyl-amino)-methyl]-4,5-dihydro-oxazol-2-ylamine” for “of [H]-(S)-4-[(ethyl-phenyl-amino)-methyl]-4,5-dihydro-oxazol-2-ylamine”, “(10 pM” for “(10 μM”

Chain of rat TAAR1 (Q923Y9 whole entry): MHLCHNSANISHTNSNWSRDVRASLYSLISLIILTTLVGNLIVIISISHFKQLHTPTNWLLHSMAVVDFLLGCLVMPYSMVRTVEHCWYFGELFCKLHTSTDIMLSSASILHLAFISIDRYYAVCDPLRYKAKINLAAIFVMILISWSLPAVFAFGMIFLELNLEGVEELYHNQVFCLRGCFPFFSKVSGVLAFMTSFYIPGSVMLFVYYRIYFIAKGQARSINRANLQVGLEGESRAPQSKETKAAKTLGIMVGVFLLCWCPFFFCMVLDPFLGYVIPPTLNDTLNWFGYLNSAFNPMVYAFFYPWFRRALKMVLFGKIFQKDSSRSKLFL

Row | Kd (rat TAAR1; rat TAAR1 membranes, saturation curve, usual value, read-out: dissociation constant (Kd) of the radioligand) [nM] | Kd (mouse TAAR1; mouse TAAR1 membranes, saturation curve, usual value, read-out: dissociation constant (Kd) of the radioligand) [nM] | SMILES | Ki (rat TAAR1) [µM] | Ki (mouse TAAR1) [µM]
1 |  |  | FC(F)(F)c1ccnc(Nc2ccc3c(c2)CCN2CCNC[C@@H]32)n1 [Example 24, (11bR)-N-[4-(trifluoromethyl)pyrimidin-2-yl]-2,3,4,6,7,11b-hexahydro-1H-pyrazino[2,1-a]isoquinolin-9-amine] | 0.0471 | 0.0599
2 |  |  | CCc1ccc2c(c1)CCN1CCNC[C@@H]21 [Example 27, (11bR)-9-ethyl-2,3,4,6,7,11b-hexahydro-1H-pyrazino[2,1-a]isoquinoline] | 0.288 | 0.266
3 |  |  | Cc1ccc2c(c1)CCN1CCNC[C@@H]21 [Example 28, (11bR)-9-methyl-2,3,4,6,7,11b-hexahydro-1H-pyrazino[2,1-a]isoquinoline] | 0.421 | 0.29
4 |  |  | c1cc2c(cc1C1CC1)CCN1CCNC[C@@H]21 [Example 29, (11bR)-9-cyclopropyl-2,3,4,6,7,11b-hexahydro-1H-pyrazino[2,1-a]isoquinoline] | 0.815 | 1.81
5 |  |  | Fc1cccc2c1CCN1CCNC[C@@H]21 [Example 30, (11bR)-8-fluoro-2,3,4,6,7,11b-hexahydro-1H-pyrazino[2,1-a]isoquinoline] | 0.201 | 0.176
6 |  |  | Fc1c(Nc2cc(Cl)nc(C(F)(F)F)n2)ccc2c1CCN1CCNC[C@H]21 [Example 31, (11bS)-N-[6-chloro-2-(trifluoromethyl)pyrimidin-4-yl]-8-fluoro-2,3,4,6,7,11b-hexahydro-1H-pyrazino[2,1-a]isoquinolin-9-amine] | 1.73 | 0.835
7 |  |  | O=C(Nc1ccc2c(c1F)CCN1CCNC[C@@H]21)c1ccnc(C(F)(F)F)c1 [Example 32, N-[(11bR)-8-fluoro-2,3,4,6,7,11b-hexahydro-1H-pyrazino[2,1-a]isoquinolin-9-yl]-2-(trifluoromethyl)pyridine-4-carboxamide] | 7.63 | 0.444
8 |  |  | Fc1c(Nc2ncc(C3CC3)cn2)ccc2c1CCN1CCNC[C@@H]21 [Example 33, (11bR)-N-(5-cyclopropylpyrimidin-2-yl)-8-fluoro-2,3,4,6,7,11b-hexahydro-1H-pyrazino[2,1-a]isoquinolin-9-amine] | 0.105 | 0.0677
9 |  |  | O=C(Nc1ccc(C(F)(F)F)cc1)Nc1ccc2c(c1)CCN1CCNC[C@@H]21 [Example 35, (R)-1-(2,3,4,6,7,11b-hexahydro-1H-pyrazino[2,1-a]isoquinolin-9-yl)-3-(4-(trifluoromethyl)phenyl)urea] | 0.0012 | 0.0025
10 |  |  | COc1ccc(NC(=O)Nc2ccc3c(c2)CCN2CCNC[C@@H]32)cc1 [Example 36, (R)-1-(2,3,4,6,7,11b-hexahydro-1H-pyrazino[2,1-a]isoquinolin-9-yl)-3-(4-methoxyphenyl)urea] | 0.023 | 0.0101
11 |  |  | c1cc2c(cc1Nc1nc(C3CC3)no1)CCN1CCNC[C@@H]21 [Example 37, N-[(11R)-2,3,4,6,7,11-hexahydro-1H-pyrazino[2,1-a]isoquinolin-9-yl]-3-cyclopropyl-1,2,4-oxadiazol-5-amine] | 0.198 | 0.0347
12 |  |  | Cc1cc(C(=O)Nc2ccc3c(c2)CCN2CCNC[C@@H]32)nc(C(F)(F)F)n1 [Example 38, (R)-N-(2,3,4,6,7,11b-hexahydro-1H-pyrazino[2,1-a]isoquinolin-9-yl)-6-methyl-2-(trifluoromethyl)pyrimidine-4-carboxamide] | 0.157 | 0.222
13 |  |  | CC(C)c1cc(C(=O)Nc2ccc3c(c2)CCN2CCNC[C@@H]32)n(C)n1 [Example 39, (R)-N-(2,3,4,6,7,11b-hexahydro-1H-pyrazino[2,1-a]isoquinolin-9-yl)-3-isopropyl-1-methyl-1H-pyrazole-5-carboxamide] | 0.869 | 1.07
14 |  |  | Cc1nsc(Nc2ccc3c(c2)CCN2CCNC[C@@H]32)n1 [Example 40, (R)-N-(2,3,4,6,7,11b-hexahydro-1H-pyrazino[2,1-a]isoquinolin-9-yl)-3-methyl-1,2,4-thiadiazol-5-amine] | 0.826 | 0.202
15 |  |  | CCc1n[nH]c(C(=O)Nc2ccc3c(c2)CCN2CCNC[C@@H]32)c1C [Example 41, (R)-3-ethyl-N-(2,3,4,6,7,11b-hexahydro-1H-pyrazino[2,1-a]isoquinolin-9-yl)-4-methyl-1H-pyrazole-5-carboxamide] | 0.288 | 0.145
16 |  |  | O=C(Nc1ccc(Cl)nc1)c1ccc2c(c1)CCN1CCNC[C@@H]21 [Example 42, (11bR)-N-(6-chloro-3-pyridyl)-2,3,4,6,7,11b-hexahydro-1H-pyrazino[2,1-a]isoquinoline-9-carboxamide] | 0.682 | 0.0395
17 |  |  | O=C(NCc1cccc(C(F)(F)F)c1)c1ccc2c(c1)CCN1CCNC[C@@H]21 [Example 43, (11bR)-N-[[3-(trifluoromethyl)phenyl]methyl]-2,3,4,6,7,11b-hexahydro-1H-pyrazino[2,1-a]isoquinoline-9-carboxamide] | 0.137 | 0.0301
18 |  |  | O=C(Nc1ccc(Cl)cc1)c1ccc2c(c1)CCN1CCNC[C@@H]21 [Example 44, (11bR)-N-(4-chlorophenyl)-2,3,4,6,7,11b-hexahydro-1H-pyrazino[2,1-a]isoquinoline-9-carboxamide] | 0.274 | 0.0161
19 |  |  | COc1ccc(NC(=O)c2ccc3c(c2)CCN2CCNC[C@@H]32)cn1 [Example 45, (11bR)-N-(6-methoxy-3-pyridyl)-2,3,4,6,7,11b-hexahydro-1H-pyrazino[2,1-a]isoquinoline-9-carboxamide] | > 1.5 | 0.299
20 |  |  | O=C(Nc1cnc(Cl)nc1)c1ccc2c(c1)CCN1CCNC[C@@H]21 [Example 46, (11bR)-N-(2-chloropyrimidin-5-yl)-2,3,4,6,7,11b-hexahydro-1H-pyrazino[2,1-a]isoquinoline-9-carboxamide] | > 1.5 | 0.309
21 |  |  | Nc1ccc2c(c1)CCN1CCNC[C@@H]21 [Example 47, (11bR)-2,3,4,6,7,11b-hexahydro-1H-pyrazino[2,1-a]isoquinolin-9-amine] | > 1.5 | 1.1
22 | ~2.3 | ~0.7 | CCN(C[C@H]1COC(N)=N1)c1ccccc1 [^3[H]-(S)-4-[(ethyl-phenyl-amino)-methyl]-4,5-dihydro-oxazol-2-ylamine, reference compound] |  | 
